{"source": "paper PMC7316778", "about": "(Nature Communications, 2020)", "test_in_all_cases": "SelectScreen kinase assay", "key": {"NIM1K": {"target": "NIM1K (Homo sapiens, UniProt Q8IY84)", "method": "(§1) Selectivity profiling assays were performed by the Invitrogen SelectScreen™ Services. […] The concentration of ATP was selected to be equal to the KM, unless indicated otherwise."}, "TXK": {"target": "TXK (Homo sapiens, UniProt P42681)", "method": "as §1"}, "MAP3K3 (MEKK3)": {"target": "MAP3K3 (MEKK3) (Homo sapiens, UniProt Q99759)", "method": "as §1"}, "STK38 (NDR)": {"target": "STK38 (NDR) (Homo sapiens, UniProt Q15208)", "sequence (Q15208 whole entry)": "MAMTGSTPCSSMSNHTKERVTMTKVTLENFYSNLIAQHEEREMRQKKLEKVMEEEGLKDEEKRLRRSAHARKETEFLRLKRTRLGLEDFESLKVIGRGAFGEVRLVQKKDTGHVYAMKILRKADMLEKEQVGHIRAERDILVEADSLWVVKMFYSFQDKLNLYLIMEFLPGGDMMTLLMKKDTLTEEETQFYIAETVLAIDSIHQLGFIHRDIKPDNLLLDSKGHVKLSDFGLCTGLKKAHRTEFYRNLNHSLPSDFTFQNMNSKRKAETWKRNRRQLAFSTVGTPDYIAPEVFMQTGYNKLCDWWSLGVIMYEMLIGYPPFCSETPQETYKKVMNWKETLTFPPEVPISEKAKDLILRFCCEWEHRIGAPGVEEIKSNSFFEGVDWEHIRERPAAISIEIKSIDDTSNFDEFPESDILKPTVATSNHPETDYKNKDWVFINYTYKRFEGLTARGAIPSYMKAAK", "conditions": "for Inhibition at 1 µM (%): LanthaScreen Binding", "method": "as §1"}, "ZAK": {"target": "ZAK (Homo sapiens, UniProt Q9NYL2)", "sequence (Q9NYL2 whole entry)": "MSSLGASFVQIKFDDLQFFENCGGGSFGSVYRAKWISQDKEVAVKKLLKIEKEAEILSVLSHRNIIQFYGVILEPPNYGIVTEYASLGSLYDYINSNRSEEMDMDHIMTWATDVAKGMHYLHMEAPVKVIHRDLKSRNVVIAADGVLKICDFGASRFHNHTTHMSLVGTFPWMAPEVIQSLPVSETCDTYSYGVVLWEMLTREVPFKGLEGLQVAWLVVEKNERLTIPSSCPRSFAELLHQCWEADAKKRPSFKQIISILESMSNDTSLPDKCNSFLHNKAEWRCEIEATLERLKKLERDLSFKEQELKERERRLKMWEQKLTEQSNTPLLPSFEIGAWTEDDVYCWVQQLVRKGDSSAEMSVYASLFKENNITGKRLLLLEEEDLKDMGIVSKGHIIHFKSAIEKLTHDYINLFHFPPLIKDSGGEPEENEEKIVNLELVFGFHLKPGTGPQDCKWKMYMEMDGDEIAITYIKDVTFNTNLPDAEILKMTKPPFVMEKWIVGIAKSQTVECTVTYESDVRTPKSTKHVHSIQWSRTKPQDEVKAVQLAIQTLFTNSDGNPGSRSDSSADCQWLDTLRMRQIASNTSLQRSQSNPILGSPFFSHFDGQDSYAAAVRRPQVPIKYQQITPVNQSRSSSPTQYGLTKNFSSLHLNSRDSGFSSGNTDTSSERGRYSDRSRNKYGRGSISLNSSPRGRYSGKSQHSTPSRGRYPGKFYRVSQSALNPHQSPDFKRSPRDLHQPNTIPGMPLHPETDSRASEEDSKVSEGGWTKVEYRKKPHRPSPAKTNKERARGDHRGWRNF", "conditions": "for Inhibition at 1 µM (%): LanthaScreen Binding", "method": "as §1"}, "PLK1": {"target": "PLK1 (Homo sapiens, UniProt P53350)", "method": "as §1"}, "FGFR4": {"target": "FGFR4 (Homo sapiens, UniProt P22455)", "method": "as §1"}, "KDR (VEGFR2)": {"tested_on": "KDR (VEGFR2)", "conditions": "IC50 on that kinase divided by IC50 on FES^S700C", "method": "as §1"}, "CLK1": {"target": "CLK1 (Homo sapiens, UniProt P49759)", "sequence (P49759 whole entry)": "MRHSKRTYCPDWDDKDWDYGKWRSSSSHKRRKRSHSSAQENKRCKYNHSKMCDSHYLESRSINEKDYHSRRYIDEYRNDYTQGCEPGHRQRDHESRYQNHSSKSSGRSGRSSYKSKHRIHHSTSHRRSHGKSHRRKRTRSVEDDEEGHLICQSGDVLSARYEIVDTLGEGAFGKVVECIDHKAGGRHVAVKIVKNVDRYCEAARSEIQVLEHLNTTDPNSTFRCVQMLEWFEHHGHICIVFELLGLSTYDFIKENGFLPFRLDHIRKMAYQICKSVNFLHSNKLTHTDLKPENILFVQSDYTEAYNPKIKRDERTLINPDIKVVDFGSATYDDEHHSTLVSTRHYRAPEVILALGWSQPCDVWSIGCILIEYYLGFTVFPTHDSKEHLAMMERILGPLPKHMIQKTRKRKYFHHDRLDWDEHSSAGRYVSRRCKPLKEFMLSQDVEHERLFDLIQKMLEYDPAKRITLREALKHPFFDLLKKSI", "method": "as §1"}, "PIK3C2A (PI3K-C2 alpha)": {"target": "PIK3C2A (PI3K-C2 alpha) (Homo sapiens, UniProt O00443)", "conditions": "1 h, 1 μM WEL028, 1 h preincubation", "method": "as §1"}, "IRAK4": {"target": "IRAK4 (Homo sapiens, UniProt Q9NWZ3)", "sequence (Q9NWZ3 whole entry)": "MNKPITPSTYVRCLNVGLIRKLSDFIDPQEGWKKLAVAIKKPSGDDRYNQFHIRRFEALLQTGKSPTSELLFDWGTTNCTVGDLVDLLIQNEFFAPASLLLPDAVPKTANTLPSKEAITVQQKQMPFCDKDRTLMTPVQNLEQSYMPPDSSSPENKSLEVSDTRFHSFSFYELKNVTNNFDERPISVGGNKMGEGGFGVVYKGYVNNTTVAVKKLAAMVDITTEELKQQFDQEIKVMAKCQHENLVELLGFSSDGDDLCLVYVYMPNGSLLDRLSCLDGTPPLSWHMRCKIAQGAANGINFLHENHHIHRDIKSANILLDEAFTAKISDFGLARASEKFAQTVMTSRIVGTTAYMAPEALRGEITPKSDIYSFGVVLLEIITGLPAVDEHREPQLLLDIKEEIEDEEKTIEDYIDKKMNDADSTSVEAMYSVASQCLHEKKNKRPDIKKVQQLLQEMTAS", "method": "as §1"}, "TGFBR1 (ALK5)": {"target": "T1, TGFBR1 (ALK5) (Homo sapiens, UniProt P36897)", "T1 sequence (P36897 34-503)": "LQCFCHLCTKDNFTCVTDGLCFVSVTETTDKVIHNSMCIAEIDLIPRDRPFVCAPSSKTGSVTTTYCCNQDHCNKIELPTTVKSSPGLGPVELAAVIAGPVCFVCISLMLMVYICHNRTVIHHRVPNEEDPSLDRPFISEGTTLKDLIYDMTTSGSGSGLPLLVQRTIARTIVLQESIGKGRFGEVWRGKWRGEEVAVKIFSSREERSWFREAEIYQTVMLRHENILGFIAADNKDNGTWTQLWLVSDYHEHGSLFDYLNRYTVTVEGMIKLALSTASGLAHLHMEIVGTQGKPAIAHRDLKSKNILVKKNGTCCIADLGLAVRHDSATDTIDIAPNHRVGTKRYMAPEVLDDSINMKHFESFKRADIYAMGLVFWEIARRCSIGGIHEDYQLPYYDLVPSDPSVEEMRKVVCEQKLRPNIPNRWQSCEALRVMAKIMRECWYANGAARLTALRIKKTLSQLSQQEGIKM", "conditions": "for Inhibition at 1 µM (%): LanthaScreen Binding", "method": "as §1"}, "WNK3": {"target": "WNK3 (Homo sapiens, UniProt Q9BYP7)", "sequence (Q9BYP7 whole entry)": "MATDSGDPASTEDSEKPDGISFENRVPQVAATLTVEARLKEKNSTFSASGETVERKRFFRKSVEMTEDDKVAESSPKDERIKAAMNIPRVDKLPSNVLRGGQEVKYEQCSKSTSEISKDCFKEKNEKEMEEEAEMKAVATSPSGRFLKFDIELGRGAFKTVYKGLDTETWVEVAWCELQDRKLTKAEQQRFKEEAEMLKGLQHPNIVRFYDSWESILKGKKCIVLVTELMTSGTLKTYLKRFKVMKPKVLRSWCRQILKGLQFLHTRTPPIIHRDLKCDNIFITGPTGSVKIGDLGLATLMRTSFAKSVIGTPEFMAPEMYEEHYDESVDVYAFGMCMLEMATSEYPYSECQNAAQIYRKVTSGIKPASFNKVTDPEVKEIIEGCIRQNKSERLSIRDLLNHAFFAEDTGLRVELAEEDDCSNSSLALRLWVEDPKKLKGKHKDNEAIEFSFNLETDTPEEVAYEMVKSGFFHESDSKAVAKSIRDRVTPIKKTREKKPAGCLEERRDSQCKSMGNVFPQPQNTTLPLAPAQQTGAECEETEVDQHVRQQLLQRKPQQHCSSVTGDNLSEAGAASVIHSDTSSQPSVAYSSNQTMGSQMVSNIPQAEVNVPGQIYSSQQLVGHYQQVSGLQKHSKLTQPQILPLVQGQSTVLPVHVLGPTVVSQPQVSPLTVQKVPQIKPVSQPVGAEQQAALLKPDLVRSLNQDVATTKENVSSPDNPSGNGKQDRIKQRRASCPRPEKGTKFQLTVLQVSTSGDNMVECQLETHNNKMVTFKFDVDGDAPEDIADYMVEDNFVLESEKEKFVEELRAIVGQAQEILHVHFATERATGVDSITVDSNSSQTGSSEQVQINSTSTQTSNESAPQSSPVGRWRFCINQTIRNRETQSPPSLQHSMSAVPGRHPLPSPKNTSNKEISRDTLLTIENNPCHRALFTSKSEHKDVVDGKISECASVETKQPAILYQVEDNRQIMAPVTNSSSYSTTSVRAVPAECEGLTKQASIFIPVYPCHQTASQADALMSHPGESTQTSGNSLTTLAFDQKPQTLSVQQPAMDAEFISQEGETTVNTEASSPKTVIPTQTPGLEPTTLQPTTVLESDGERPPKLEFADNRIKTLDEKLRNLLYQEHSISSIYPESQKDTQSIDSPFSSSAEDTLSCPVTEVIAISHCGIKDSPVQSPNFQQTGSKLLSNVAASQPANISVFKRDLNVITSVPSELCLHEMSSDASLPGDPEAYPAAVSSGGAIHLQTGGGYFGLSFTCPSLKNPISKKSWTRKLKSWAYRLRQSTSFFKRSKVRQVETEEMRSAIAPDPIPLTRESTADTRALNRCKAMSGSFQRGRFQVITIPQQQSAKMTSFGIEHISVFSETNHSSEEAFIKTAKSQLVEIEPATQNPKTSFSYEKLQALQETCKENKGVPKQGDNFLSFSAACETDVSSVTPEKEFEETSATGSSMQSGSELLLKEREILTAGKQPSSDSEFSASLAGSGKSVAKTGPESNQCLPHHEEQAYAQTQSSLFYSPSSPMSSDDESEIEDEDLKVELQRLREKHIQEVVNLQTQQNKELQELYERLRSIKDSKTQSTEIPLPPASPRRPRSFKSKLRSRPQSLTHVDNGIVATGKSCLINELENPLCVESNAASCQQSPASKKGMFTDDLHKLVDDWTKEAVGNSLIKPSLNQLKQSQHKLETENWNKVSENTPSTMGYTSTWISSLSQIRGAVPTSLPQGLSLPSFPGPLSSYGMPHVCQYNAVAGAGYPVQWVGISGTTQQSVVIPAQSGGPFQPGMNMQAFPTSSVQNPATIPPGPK", "method": "as §1"}, "RPS6KA3 (RSK2)": {"target": "RPS6KA3 (RSK2) (Homo sapiens, UniProt P51812)", "sequence (P51812 whole entry)": "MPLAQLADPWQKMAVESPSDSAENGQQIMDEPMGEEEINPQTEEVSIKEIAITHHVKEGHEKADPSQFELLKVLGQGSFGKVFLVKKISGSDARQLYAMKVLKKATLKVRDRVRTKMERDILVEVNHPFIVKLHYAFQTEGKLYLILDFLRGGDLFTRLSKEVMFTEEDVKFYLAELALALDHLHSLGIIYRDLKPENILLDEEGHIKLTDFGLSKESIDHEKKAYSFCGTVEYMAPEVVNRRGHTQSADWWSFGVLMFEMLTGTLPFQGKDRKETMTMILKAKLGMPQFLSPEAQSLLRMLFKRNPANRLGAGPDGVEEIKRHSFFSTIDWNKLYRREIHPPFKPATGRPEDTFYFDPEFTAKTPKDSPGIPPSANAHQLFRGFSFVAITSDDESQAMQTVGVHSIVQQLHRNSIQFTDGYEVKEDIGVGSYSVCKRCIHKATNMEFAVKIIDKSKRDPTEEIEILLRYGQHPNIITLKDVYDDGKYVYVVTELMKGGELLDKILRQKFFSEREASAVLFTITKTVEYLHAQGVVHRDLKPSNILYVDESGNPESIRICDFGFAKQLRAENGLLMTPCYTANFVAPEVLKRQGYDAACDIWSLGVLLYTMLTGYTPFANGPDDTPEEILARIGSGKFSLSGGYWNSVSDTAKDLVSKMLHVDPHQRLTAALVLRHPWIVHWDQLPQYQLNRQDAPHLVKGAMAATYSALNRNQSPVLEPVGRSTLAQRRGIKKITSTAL", "method": "as §1"}, "PLK4": {"target": "T2, PLK4 (Homo sapiens, UniProt O00444)", "T2 sequence (O00444 1-970)": "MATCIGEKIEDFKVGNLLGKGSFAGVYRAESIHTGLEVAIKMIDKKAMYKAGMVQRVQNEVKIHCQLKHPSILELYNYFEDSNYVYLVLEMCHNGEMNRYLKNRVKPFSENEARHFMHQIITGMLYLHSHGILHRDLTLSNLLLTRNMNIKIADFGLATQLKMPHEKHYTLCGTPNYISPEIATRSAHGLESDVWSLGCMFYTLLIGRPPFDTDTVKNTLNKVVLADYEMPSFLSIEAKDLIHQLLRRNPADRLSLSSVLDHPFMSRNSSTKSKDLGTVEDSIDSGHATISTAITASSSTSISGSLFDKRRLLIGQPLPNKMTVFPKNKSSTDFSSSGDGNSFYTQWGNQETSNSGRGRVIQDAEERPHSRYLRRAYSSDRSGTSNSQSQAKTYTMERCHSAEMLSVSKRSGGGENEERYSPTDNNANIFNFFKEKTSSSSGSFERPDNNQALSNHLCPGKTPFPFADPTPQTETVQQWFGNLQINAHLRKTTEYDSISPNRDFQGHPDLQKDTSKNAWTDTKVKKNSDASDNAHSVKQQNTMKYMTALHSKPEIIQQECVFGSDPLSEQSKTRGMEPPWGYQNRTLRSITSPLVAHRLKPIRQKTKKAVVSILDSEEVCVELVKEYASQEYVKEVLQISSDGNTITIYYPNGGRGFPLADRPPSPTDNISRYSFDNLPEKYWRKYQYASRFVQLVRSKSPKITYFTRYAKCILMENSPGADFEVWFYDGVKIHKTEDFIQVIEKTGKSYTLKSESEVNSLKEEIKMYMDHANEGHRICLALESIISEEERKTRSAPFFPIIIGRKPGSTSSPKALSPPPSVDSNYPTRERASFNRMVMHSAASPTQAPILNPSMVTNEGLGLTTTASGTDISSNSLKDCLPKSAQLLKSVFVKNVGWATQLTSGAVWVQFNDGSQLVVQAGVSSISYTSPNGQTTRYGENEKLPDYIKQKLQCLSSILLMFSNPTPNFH", "method": "as §1"}, "[1]": {"conditions": "1 h, 1 μM WEL028, 1 h preincubation"}, "[2]": {"conditions": "read-out: Inhibition at 1 µM (%), 1 µM, ZLYTE, ATP Km app"}}, "note": "pIC50: −log10 of the molar value. Values joined by “and” are separate entries in the source; they are usually repeats but may differ in a detail not shown here. Identical values can stand only once. Like-named read-outs stand apart in the source and are kept apart here.", "data": [{"smiles": "C#CCOc1ccc(Nc2ncc(Cl)c(Nc3ccccc3NC(=O)C=C)n2)c(OC)c1", "note": "[Compound 6]", "values": [{"measurement": "inhibition at 1 µM", "setting": "NIM1K; [1]", "value": 2, "unit": "%"}, {"measurement": "inhibition at 1 µM", "setting": "NIM1K; read-out: Inhibition at 1 µM (%), NIM1K, 1 µM, ZLYTE, ATP Km app", "value": 3, "unit": "%"}, {"measurement": "inhibition at 1 µM", "setting": "TXK; [1]", "value": 7, "unit": "%"}, {"measurement": "inhibition at 1 µM", "setting": "TXK; [2]", "value": 8, "unit": "%"}, {"measurement": "inhibition at 1 µM", "setting": "MAP3K3 (MEKK3); [1]", "value": 7, "unit": "%"}, {"measurement": "inhibition at 1 µM", "setting": "MAP3K3 (MEKK3); read-out: Inhibition at 1 µM (%), MAP3K3 (MEKK3), 1 µM, LanthaScreen Binding", "value": 8, "unit": "%"}, {"measurement": "Inhibition at 1 µM (%)", "setting": "STK38 (NDR)", "value": 2, "unit": "%"}, {"measurement": "Inhibition at 1 µM (%)", "setting": "STK38 (NDR); listed as WEL028, 1 µM", "value": 6, "unit": "%"}, {"measurement": "inhibition at 1 µM", "setting": "STK38 (NDR); [1]", "value": 4, "unit": "%"}, {"measurement": "Inhibition at 1 µM (%)", "setting": "ZAK", "value": 2, "unit": "%"}, {"measurement": "Inhibition at 1 µM (%)", "setting": "ZAK; listed as WEL028, 1 µM", "value": 6, "unit": "%"}, {"measurement": "inhibition at 1 µM", "setting": "ZAK; [1]", "value": 4, "unit": "%"}, {"measurement": "inhibition at 1 µM", "setting": "PLK1; [1]", "value": 12, "unit": "%"}, {"measurement": "Inhibition at 1 µM (%)", "setting": "PLK1; PLK1, 1 µM, ZLYTE, ATP Km app, listed as WEL028, 1 µM", "value": 8, "unit": "%"}, {"measurement": "inhibition at 1 µM", "setting": "PLK1; read-out: Inhibition at 1 µM (%), PLK1, 1 µM, ZLYTE, ATP Km app", "value": 15, "unit": "%"}, {"measurement": "inhibition at 1 µM", "setting": "FGFR4; [1]", "value": 34, "unit": "%"}, {"measurement": "Inhibition at 1 µM (%)", "setting": "FGFR4; FGFR4, 1 µM, ZLYTE, ATP Km app, listed as WEL028, 1 µM", "value": 38, "unit": "%"}, {"measurement": "inhibition at 1 µM", "setting": "FGFR4; read-out: Inhibition at 1 µM (%), FGFR4, 1 µM, ZLYTE, ATP Km app", "value": 31, "unit": "%"}, {"measurement": "Apparent fold selectivity", "setting": "KDR (VEGFR2)", "value": 153, "unit": "fold"}, {"measurement": "inhibition at 1 µM", "setting": "CLK1; [1]", "value": 5, "unit": "%"}, {"measurement": "Inhibition at 1 µM (%)", "setting": "CLK1; CLK1, 1 µM, ZLYTE, ATP Km app, listed as WEL028, 1 µM", "value": "1% and 8%"}, {"measurement": "inhibition at 1 µM", "setting": "PIK3C2A (PI3K-C2 alpha)", "value": 5, "unit": "%"}, {"measurement": "Inhibition (%)", "setting": "IRAK4; 1 μM WEL028, 1 h preincubation", "value": 0, "unit": "%"}, {"measurement": "Inhibition at 1 µM (%)", "setting": "IRAK4; IRAK4, 1 µM, ZLYTE, ATP Km app, listed as WEL028, 1 µM", "value": "-3% and 3%"}, {"measurement": "Inhibition at 1 µM (%)", "setting": "TGFBR1 (ALK5)", "value": 3, "unit": "%"}, {"measurement": "Inhibition at 1 µM (%)", "setting": "TGFBR1 (ALK5); listed as WEL028, 1 µM", "value": 8, "unit": "%"}, {"measurement": "inhibition at 1 µM", "setting": "TGFBR1 (ALK5); [1]", "value": 6, "unit": "%"}, {"measurement": "Inhibition at 1 µM (%)", "setting": "WNK3; 1 µM, LanthaScreen Binding, listed as WEL028, 1 µM", "value": "5% and 1%"}, {"measurement": "inhibition at 1 µM", "setting": "WNK3; [1]", "value": 3, "unit": "%"}, {"measurement": "Inhibition at 1 µM (%)", "setting": "RPS6KA3 (RSK2); 1 µM, ZLYTE, ATP Km app, listed as WEL028, 1 µM", "value": 12, "unit": "%"}, {"measurement": "inhibition at 1 µM", "setting": "RPS6KA3 (RSK2); [1]", "value": 13, "unit": "%"}, {"measurement": "inhibition at 1 µM", "setting": "RPS6KA3 (RSK2); [2]", "value": 13, "unit": "%"}, {"measurement": "pIC50", "setting": "PLK4", "value": 7.60}, {"measurement": "inhibition at 1 µM", "setting": "PLK4; [1]", "value": 98, "unit": "%"}, {"measurement": "Apparent fold selectivity", "setting": "PLK4; IC50 on that kinase divided by IC50 on FES^S700C", "value": 6, "unit": "fold"}, {"measurement": "inhibition at 1 µM", "setting": "PLK4; read-out: Inhibition at 1 µM (%), PLK4, 1 µM, LanthaScreen Binding", "value": 99, "unit": "%"}]}]}
